Measured values as given in patent US20040019432A1, “System and method for integrated computer-aided molecular discovery” (priority 2002, published 2004).

Each compound was assayed against T1, thrombin (Bos taurus, UniProt P00735) (assay: biological assay for thrombin inhibitory activity (fluorogenic substrate)). Settings: test probe concentration 50 μM.
T1 construct: purchased Sigma T-3399
Format: biochemical
Description: The biological assay for thrombin inhibitory activity is detailed below. To Costar® 96-well black fluorescence plate wells is added 70 microliters of assay buffer, followed by 10 microliters of 1 millimolar substrate solution. Test probe (10 microliters in 30% DMSO) is then added to wells according to the desired concentrations for the assay. The mixture is incubated at 37° C. for 5 minutes, followed by addition of 10 microliters of thrombin (100 micrograms/mL in assay buffer), to make a final assay volume of 100 microliters. The plate is mixed gently and incubated 15 minutes at 37° C. Stop buffer (100 microliters) is added, and the plate is read by detecting fluorescence intensity (Excitation at 360 nm, Emission at 460 nm). Percent inhibition of test compound is calculated by comparison with control wells. “Assay buffer” is composed of 100 mM KH2PO4, 100 mM Na2HPO4, 1 mM EDTA, 0.01% BRIJ-35, and 1 mM dithiothreitol (added fresh on the day assay is preformed). “Stop buffer” is composed of 100 mM Na—O(O)CCH2Cl and 30 mM sodium acetate which is brought to pH 2.5 with glacial acetic acid. Thrombin was purchased from Sigma (cat #T-3399). Thrombin substrate III fluorogenic was purchased from ICN (cat #195915). Sodium acetate, dithiothreitol, and Brij-35 were purchased from Sigma. Sodium monochloroacetate was purchased from Lancaster 223-498-3. Glacial acetic acid was purchased from Alfa Aesar (cat # 33252). Thrombin was stored at −20° C. Thrombin substrate fluorogenic was stored at −20° C. (5 mM in DMSO).

inhibition at 50 µM | SMILES
10 to 39% | COc1ccc(CNC(=O)c2cc(Cl)ccc2NC(=O)c2n[nH]c3ccccc23)cc1OC [Example B1]
10 to 39% | CCCCN(CCCC)CCCNC(=O)c1cc(Cl)ccc1NC(=O)c1n[nH]c2ccccc12 [Example B2]
10 to 39% | CC(NC(=O)C(NC(=O)c1n[nH]c2ccccc12)C1CCNCC1)c1ccccc1 (stereo not drawn) [Example B3]

Same assay, conditions: test probe concentration 100 μM

inhibition at 100 µM | SMILES
40 to 74% | COc1ccc(CNC(=O)c2cc(Cl)ccc2NC(=O)c2n[nH]c3ccccc23)cc1OC [Example B1]
40 to 74% | CCCCN(CCCC)CCCNC(=O)c1cc(Cl)ccc1NC(=O)c1n[nH]c2ccccc12 [Example B2]
40 to 74% | CC(NC(=O)C(NC(=O)c1n[nH]c2ccccc12)C1CCNCC1)c1ccccc1 (stereo not drawn) [Example B3]
